The target of one assay is T1, Streptokinase A (Streptococcus pyogenes serotype M1, UniProt P10520).
T1 sequence (P10520 whole entry): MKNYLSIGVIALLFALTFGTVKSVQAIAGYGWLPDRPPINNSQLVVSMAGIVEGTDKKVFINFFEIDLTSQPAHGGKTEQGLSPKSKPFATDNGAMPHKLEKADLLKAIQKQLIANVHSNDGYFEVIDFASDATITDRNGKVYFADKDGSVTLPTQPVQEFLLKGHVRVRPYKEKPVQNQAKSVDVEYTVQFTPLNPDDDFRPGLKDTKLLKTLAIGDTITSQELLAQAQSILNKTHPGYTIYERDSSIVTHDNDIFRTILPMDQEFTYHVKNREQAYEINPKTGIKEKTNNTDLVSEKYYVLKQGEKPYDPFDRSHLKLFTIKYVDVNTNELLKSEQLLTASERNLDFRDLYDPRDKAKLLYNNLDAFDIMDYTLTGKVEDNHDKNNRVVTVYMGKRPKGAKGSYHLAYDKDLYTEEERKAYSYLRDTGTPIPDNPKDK
Kind of assay: viability-normalized secreted streptokinase activity reduction – plasminogen activation absorbance, OD405, dose response (AID 1914).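 Also: secreted streptokinase activity via plasminogen activation per viability signal from cell pellet.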 In kind it is functional, Streptococcus pyogenes M1 GAS.

Another assay has as its target T2, Bcl-2-related protein A1 (Mus musculus, UniProt Q07440).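 Also: confirmatory dose–response counterscreen on Bfl-1, used to check hits from a UBC13 polyubiquitin inhibitor campaign.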
T2 sequence (Q07440 whole entry): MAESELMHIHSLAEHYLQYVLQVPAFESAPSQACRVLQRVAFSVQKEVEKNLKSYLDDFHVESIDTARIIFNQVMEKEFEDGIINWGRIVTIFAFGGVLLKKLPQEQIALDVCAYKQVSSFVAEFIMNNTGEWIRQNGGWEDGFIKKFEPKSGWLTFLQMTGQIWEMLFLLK
It counts as functional.

The target in assay [1] is T3, Apoptotic protease-activating factor 1 (Homo sapiens, UniProt O14727).
T3 sequence (O14727 whole entry): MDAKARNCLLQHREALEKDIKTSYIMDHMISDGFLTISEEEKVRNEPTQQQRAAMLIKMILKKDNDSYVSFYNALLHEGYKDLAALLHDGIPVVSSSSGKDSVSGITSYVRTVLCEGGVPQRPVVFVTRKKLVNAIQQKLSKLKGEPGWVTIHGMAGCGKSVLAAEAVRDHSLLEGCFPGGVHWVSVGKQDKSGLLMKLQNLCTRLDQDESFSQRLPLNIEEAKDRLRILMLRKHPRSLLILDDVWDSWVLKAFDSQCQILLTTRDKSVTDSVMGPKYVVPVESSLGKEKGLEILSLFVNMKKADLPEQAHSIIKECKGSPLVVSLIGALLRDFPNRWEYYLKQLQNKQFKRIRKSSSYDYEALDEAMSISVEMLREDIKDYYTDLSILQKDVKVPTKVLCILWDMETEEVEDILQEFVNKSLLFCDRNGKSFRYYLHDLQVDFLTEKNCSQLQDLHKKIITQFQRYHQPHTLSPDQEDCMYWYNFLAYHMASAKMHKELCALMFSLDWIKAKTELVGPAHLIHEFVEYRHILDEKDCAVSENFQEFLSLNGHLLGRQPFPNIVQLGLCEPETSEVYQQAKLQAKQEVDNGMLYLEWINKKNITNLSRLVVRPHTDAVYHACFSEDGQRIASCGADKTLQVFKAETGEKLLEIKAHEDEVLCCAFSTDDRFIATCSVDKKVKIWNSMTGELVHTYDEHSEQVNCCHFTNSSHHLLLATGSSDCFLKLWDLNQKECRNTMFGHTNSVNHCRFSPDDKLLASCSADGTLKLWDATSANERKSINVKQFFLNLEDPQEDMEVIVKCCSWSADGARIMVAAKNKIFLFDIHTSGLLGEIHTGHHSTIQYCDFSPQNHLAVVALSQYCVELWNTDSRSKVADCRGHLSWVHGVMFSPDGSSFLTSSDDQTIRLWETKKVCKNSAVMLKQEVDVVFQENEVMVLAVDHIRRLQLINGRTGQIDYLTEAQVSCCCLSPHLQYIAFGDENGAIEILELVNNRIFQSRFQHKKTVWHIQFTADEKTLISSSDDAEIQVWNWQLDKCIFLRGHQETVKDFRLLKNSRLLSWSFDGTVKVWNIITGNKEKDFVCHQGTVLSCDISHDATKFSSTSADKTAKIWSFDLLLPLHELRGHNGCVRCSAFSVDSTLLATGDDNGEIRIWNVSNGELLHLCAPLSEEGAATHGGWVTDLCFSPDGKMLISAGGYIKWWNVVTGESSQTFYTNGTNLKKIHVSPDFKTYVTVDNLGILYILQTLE
In kind it is functional.

A short description of assay [2]: viability loss in CEM21 cells – cell-based, CellTiter-Glo luminescence, cherry-picked, cytotoxicity control for viral fusion inhibitor project, dose response (AID 652042).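 Also: potency for signal decrease meaning cytotoxicity.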 In kind it is functional. (In general: In ATP-based viability assays light output follows the ATP content of the culture.)
Assay [3] is described as follows: viability loss in HeLa cells – cytotoxicity control for MgcRacGAP inhibitor project, dose response (AID 624300). It counts as functional.
Another assay deals with T4, Caspase-6 (Homo sapiens, UniProt P55212).
T4 sequence (P55212 whole entry): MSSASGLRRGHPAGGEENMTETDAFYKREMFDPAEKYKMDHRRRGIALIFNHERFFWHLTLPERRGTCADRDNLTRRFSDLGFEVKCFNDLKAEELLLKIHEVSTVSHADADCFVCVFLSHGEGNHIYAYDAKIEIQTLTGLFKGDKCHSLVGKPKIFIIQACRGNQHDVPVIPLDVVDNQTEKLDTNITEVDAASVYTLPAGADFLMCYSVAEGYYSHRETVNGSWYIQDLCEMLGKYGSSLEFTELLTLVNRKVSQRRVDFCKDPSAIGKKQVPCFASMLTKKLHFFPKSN
Kind of assay: inhibition of CASP6 peptide cleavage – biochemical, VEID-R110 fluorescence, cherry-pick, dose response (AID 720632).

The values that follow come from ChEMBL document CHEMBL1201862, “PubChem BioAssay data set” (2004).

Active and inactive are the calls of the source.

On to `CCCCCCCCCCOC(=O)C[n+]1c(COc2ccccc2OC)n(C)c2ccccc21`, for which, on Streptokinase A, the EC50 is recorded as > 150 µM (not active). For the same compound, the IC50 on Bcl-2-related protein A1 was 18.4 µM (active); in assay [1], 14.3 µM (active). Further, the AC50 in assay [2] was 6.91 µM (active).
For `O=c1ccc2c(-c3ccccc3S(=O)(=O)O)c3ccc(O)c(O)c3oc-2c1O` [PYROGALLOL RED], the CC50 in assay [3] is 100 µM (active). In addition, the AC50 on Caspase-6 was 192 nM (active).

One may read the EC50 as the concentration that produces a half-maximal response. Low readings indicate higher potency in that assay, high ones lower potency in that assay. Broadly, the IC50 is the concentration at which inhibition is half-maximal. As a reminder, the AC50 is the concentration at which the activity in the assay is half-maximal. The CC50 is the concentration at which the toxic effect on the cells reaches its halfway point.
